# Assay results: patent publication US20140121240A1, “NOVEL PHARMACEUTICAL COMPOSITION” (MARUHO CO., LTD., priority 2011, published 2014)
# Test system: pruritogen-induced scratching behavior
# Assay: Antipruritic effect on pruritogen-induced scratching model (Experiment 1)
# Assay type: in vivo, mouse
# Settings: for Counts of scratching (Mean): 3% w/v in acetone 50 μL topical 1 h before, ICR female mouse
# Description: [Antipruritic Effect of Test Compound on Pruritogen-Induced Scratching Model]
# For the purpose of measuring scratching behavior (counts of scratching), a cylindrical magnet (diameter: 1 mm, length: 3 mm) was implanted into instep of right hindlimb of each mouse (ICR female mouse, 6 weeks old; Charles River Laboratories, Japan Inc.) under anesthesia at least three days before testing, and hair on her right dorsal neck was removed by a shaver under anesthesia the day before testing. After topical administration of a solution of test compound in acetone (3% w/v solution of 1-[2-(4S)-4-hydroxy-1,2,3,4-tetrahydroquinolin-1-yl]-4-pyridyl]-2,3-bis(dihydroxymethyl)-6,7-dimethoxynaphthalene sesquihydrate, as hereinafter referred to as Compound A, in acetone; 50 μL) or a vehicle (acetone; 50 μL) to the right dorsal neck of the above-treated mouse, these mice were placed into a testing apparatus (MicroAct, Neuroscience Inc.). After one hour of the administration of the above-mentioned solution, to the right dorsal neck of each mouse was intradermally administered a solution (50 μL) of a pruritogen in saline [histamine: 300 nmol/50 μL, U-46619 (chemical name: 9,11-dideoxy-9α,11α-methanoepoxyprosta-5Z,13E-dien-1-oic acid, Cayman Chemical Company): 10 nmol/50 μL, Compound 48/80 (Sigma): 3 μg/50 μL, serotonin (Sigma): 100 nmol/50 μL, or Substance P (Peptide Institute Inc.): 300 nmol/50 μL] or saline. Immediately after the administration, scratching behavior (counts of scratching) was measured for 30 minutes by MicroAct.
structure (smiles),measurement,setting,value
"COc1cc2cc(CO)c(CO)c(-c3ccnc(N4CC[C@H](O)c5ccccc54)c3)c2cc1OC [Compound A, 1-[2-(4S)-4-hydroxy-1,2,3,4-tetrahydroquinolin-1-yl]-4-pyridyl]-2,3-bis(dihydroxymethyl)-6,7-dimethoxynaphthalene sesquihydrate]","pruritogen-induced scratching behavior (counts of scratching), result in words","3% w/v topical, all pruritogens of Tables 1 to 5",significantly inhibited
same,Counts of scratching (Mean),"pruritogen Compound 48/80 3 μg/50 μL intradermal, n = 15",521 beats/30 min.
same,Counts of scratching (Mean),"pruritogen Substance P 300 nmol/50 μL intradermal, n = 15",777 beats/30 min.
same,Counts of scratching (Mean),"pruritogen U-46619 10 nmol/50 μL intradermal, n = 15",1069 beats/30 min.
same,Counts of scratching (Mean),"pruritogen histamine 300 nmol/50 μL intradermal, n = 11",365 beats/30 min.
same,Counts of scratching (Mean),"pruritogen serotonin 100 nmol/50 μL intradermal, n = 10",841 beats/30 min.
